Test results taken from US11793824B2, “Administration of nicotinamide mononucleotide in the treatment of disease” (Washington University, priority 2013, dated 2023).

What was measured:
neurospheres (NSPCs) = assay: Neurosphere proliferation, marker proteins and cell cycle under FK866; format: cell-based, mouse
Experimental: Protein extracts (15-50 μg) from mouse hippocampi or neurospheres were prepared as previously described (Yoshino et al, 2011).
Total RNA was extracted from the hippocampus using an RNeasy kit (Qiagen) and reverse-transcribed into cDNA with a High Capacity cDNA Reverse Transcription kit (Applied Biosystems). Quantitative real-time RT-PCR was conducted with the TaqMan Fast Universal PCR Master mix and appropriate TaqMan primers for each gene with the GeneAmp 7500 fast sequence detection system (Applied Biosystems). Relative expression levels were calculated for each gene by normalizing to Gapdh levels and then to a control.
FK866 (Hasmann & Schemainda, 2003) (Sigma F8557), EX527 (Peck et al, 2010) (Cayman Chemical 10009798), and AGK2 (Outeiro et al, 2007) (Sigma A8231) were dissolved in DMSO and used to inhibit Nampt, Sirt1, and Sirt2 respectively.
Neurosphere cultures and culture media were prepared as described by Dasgupta & Gutmann, 2005 and Lu & Ramanan, 2012 with the following minor modifications. Briefly, postnatal hippocampi were dissected in HibernateA (Invitrogen, A12475-01) and trypsinized at 37° C. for 7 m. Cells were mechanically dissociated by pipetting and pelleted by centrifugation (1700 rpm, 7 min). Dissociation medium (0.1% sodium bicarbonate, 15 mM HEPES, 0.5% glucose in HBSS) was used to wash the cells before they were resuspended in growth medium. Growth medium consisted of DMEM:F12 (1:1, Invitrogen 11966-025 and 21700-075, respectively), B27 (Invitrogen, 17504-044), N2 (Invitrogen, 17502-048), Pen/Strep (Invitrogen), epidermal growth factor (EGF, 20 ng/ml, Sigma, E4127), fibroblast growth factor (FGF, 10 ng/mL, R&D Systems, 233-fb), and heparin (Sigma). Cultures were maintained at 37° C. with 5% CO2, and passaged twice before use in experiments. Three to nine independent samples, each in 1 to 3 replicates, from at least two different litters, were used in all experiments. Neurospheres were cultured in the physiological glucose level of 5 mM (Dienel & Cruz, 2006), which has been previously shown to have no negative consequences on NSPC proliferation, differentiation, or death (Fu et al, 2006; Gao & Gao, 2007).
Neurospheres derived from Nampt^flox/flox mice were dissociated by trypsin digestion and seeded at similar cell densities in 24-well plates with fresh growth medium. Every 24 hours, neurospheres from triplicate wells were collected, dissociated, and counted on a hemocytometer using 0.2% trypan blue exclusion to distinguish viable cells. For analysis of neurosphere diameter, the largest neurosphere in each well was imaged (20× objective) and the diameter was calculated using ImageJ. For secondary neurosphere analysis, the total number of neurospheres in each well was counted at 7 days post-plating.
The inventors investigated how inhibition of Nampt affects neurosphere proliferation. […] To distinguish whether this decrease in cell number was due to an inhibition of proliferation or enhancement of death, the inventors analyzed the protein levels of markers of proliferation, apoptosis, and autophagy. […] Parametric analysis of gene enrichment (PAGE) was conducted based on microarray analyses. See the Methods section. […] Data are presented as mean±s.e.m. *P<0.05. **P<0.01. ***P<0.001.

[1] = Oxygen consumption, energy expenditure, respiratory quotient (Oxymax Lab Animal Monitoring System); format: in vivo, mouse; details: 100 mg/kg and 300 mg/kg groups, 12 month time point
Experimental: A 12 month-long NMN administration study using wild-type mice under a regular chow-fed condition was conducted. NMN was administered through drinking water, and two doses of NMN, 100 and 300 mg/kg body weight/day, were tested. […] To assess beneficial and possible adverse effects of NMN, a variety of physiological parameters were periodically monitored, including body weight, body temperature, food and water intake, fed and fasted blood glucose levels, fed and fasted plasma lipid panels, and glucose and insulin tolerance, in NMN-administered and control mice. Blood chemistry, blood cell counts, urine strip test, and other physiological tests including physical activity test were also checked.
In this long-term NMN administration study (See Methods; Administration of NMN through Drinking Water and Determination of NMN Stability and Toxicity), the inventors measured oxygen consumption, energy expenditure, and respiratory quotient for control, mice administered 100 mg/kg NMN per day and mice administered 300 mg/kg NMN per day at the 12 month time point by using the Oxymax Lab Animal Monitoring System (Columbus Instruments, Columbus, OH).

NAMPT cone-CKO mice = assay: ERG rescue in NAMPT cone-CKO mice; format: in vivo, mouse; details: NMN i.p.
Source text: The inventors examined the effect of selectively disrupting NAD biosynthesis within PR. The inventors utilized the cre-lox strategy to generate mice that had NAMPT conditionally deleted from either rods (NAMPT rod-CKO) or cones (NAMPT cone-CKO). The NAMPT fl/fl mice as well as the rhodopsin-cre and cone opsin-cre mice have been previously characterized. Both rod and cone cko mice are generated with normal Mendelian frequencies and are born normal with no observable systemic abnormalities (data not shown). All structural and functional analyses performed in CKO mice are analyzed in comparison to littermate controls. Rods constitute a majority of the PR neurons (97% of all photoreceptors). […] Neurosensory retinal degeneration was associated with secondary atrophy and pallor of the optic nerve (FIG. 29C).
These quantifiable structural and functional changes were associated with decrease in visual acuity in cone-CKO mice (FIG. 30E). Histopathologic analyses confirmed outer nuclear layer degeneration with subsequent multilayer retinal degeneration and cell death in cone-CKO mice similar to the changes seen above for rod-CKO mice. […] NMN treatment had no effect on littermate controls (FIG. 33A-B). […] Furthermore, providing NMN treatment is able to rescue PR neurons and vision.

[2] = FK866 10 nM, 48 hours, immunoblot

Structure (SMILES) | cyclins E and A and E2F1 mRNA (qRT-PCR) (neurospheres (NSPCs); FK866 10 nM, 48 hours) | levels of activated caspase 3 (neurospheres (NSPCs); FK866 10 nM, 48 hours) | levels of autophagy marker glycosylated LC3B (neurospheres (NSPCs); FK866 10 nM, 48 hours) | reduction of NSPC number (neurospheres (NSPCs); FK866 10 nM, 48 hours) | decrease of Ki67 protein expression (neurospheres (NSPCs); [2]) | decrease of PCNA protein expression (neurospheres (NSPCs); [2]) | proportion of NSPCs in G0/G1 (FACS) (neurospheres (NSPCs); FK866 treatment) | proportion of NSPCs in S phase (FACS) (neurospheres (NSPCs); FK866 treatment) | oxygen consumption [1] | respiratory quotient [1] | energy expenditure ([1]; through 24 hours) | effect on littermate controls (NAMPT cone-CKO mice) | ERG function (NAMPT cone-CKO mice; vs PBS treated cone-CKO mice)
O=C(/C=C/c1cccnc1)NCCCCC1CCN(C(=O)c2ccccc2)CC1 [FK866] | the primary cell cycle factors affected | only slightly increased | unchanged | 61% | 87% | 43% | increased the proportion of NSPCs in G0/G1 | decreased the proportion in S phase | – | – | – | – | –
NC(=O)c1ccc[n+]([C@@H]2O[C@H](COP(=O)([O-])O)[C@@H](O)[C@H]2O)c1 [NMN, nicotinamide mononucleotide] | – | – | – | – | – | – | – | – | significantly increased | significantly decreased | significant increases | no effect | improve ERG function
